The values that follow come from US20220324835A1 (Nurix Therapeutics, Inc., priority 2018, published 2022).

Assay [1] deals with T1, Cbl-b (Homo sapiens, UniProt Q13191). Nature of the assay: Cbl-b inhibition assay (Cbl-b activity assay, FRET, Biological Example 1; 100 mM NaCl, 60 nM Src kinase). Type of assay: biochemical. Particulars: upper bound stated in text lists; read-out: IC50 values in the Cbl-b inhibition assay of Biological Example 1. From the text: FIG. 1A and FIG. 1B show a series of diagrams depicting the activity assay utilized to assay inhibition of Cbl-b activity by a Cbl-b inhibitor. FIG. 1A: The activity assay mixture comprises an N-terminal biotinylated Avi-tagged Cbl-b, an E2 enzyme (i.e., UbcH5B) irreversibly conjugated to Bodipy-Fluorescein tagged ubiquitin (i.e., UbcH5B-Ub), a Src kinase, streptavidin-terbium, and assay buffer. Phosphorylation of Cbl-b by the Src kinase allows UbcH5B-Ub to bind to Cbl-b and bring the Bodipy-Fluorescein tagged ubiquitin in proximity to the streptavidin-terbium bound to the N-terminal biotinylated Avi-tagged Cbl-b. […] FIG. 1B: In the presence of a Cbl-b inhibitor, such as one described herein, Cbl-b is unable to bind UbcH5B-Ub. The lack of a FRET signal indicates Cbl-b is inhibited by the Cbl-b inhibitor. Ub indicates ubiquitin; N-Avi indicates biotinylated Avi-tag at the N-terminus of Cbl-b; inhibitor indicates Cbl-b inhibitor.
The lack of a FRET signal indicates Cbl-b is inhibited by the Cbl-b inhibitor. In FIG. 1A and FIG. 1B, Ub indicates ubiquitin; N-Avi indicates biotinylated Avi-tag at the N-terminus of Cbl-b; and inhibitor indicates Cbl-b inhibitor.

Assay [2] addresses T1, Cbl-b. Nature of the assay: Cbl-b activity assay (Cbl-b inhibition assay), TR-FRET of Cbl-b interaction with UbcH5B-Ub. It is filed as biochemical. Particulars: assay buffer with 100 mM NaCl, 60 nM Src kinase; read-out: Cbl-b activity IC50. In short, it runs like this: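 Compound-treated Cbl-b was incubated 1.5 h with Src kinase (60 nM final; 30 nM for asterisked values, which also used 50 mM instead of 100 mM NaCl), 1 mM ATP and 5 mM MgCl2. Binding to fluorescent Ub-loaded UbcH5B (C85K mutant) was then read by TR-FRET after 1 h more.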

T1 sequence (Q13191 36-427): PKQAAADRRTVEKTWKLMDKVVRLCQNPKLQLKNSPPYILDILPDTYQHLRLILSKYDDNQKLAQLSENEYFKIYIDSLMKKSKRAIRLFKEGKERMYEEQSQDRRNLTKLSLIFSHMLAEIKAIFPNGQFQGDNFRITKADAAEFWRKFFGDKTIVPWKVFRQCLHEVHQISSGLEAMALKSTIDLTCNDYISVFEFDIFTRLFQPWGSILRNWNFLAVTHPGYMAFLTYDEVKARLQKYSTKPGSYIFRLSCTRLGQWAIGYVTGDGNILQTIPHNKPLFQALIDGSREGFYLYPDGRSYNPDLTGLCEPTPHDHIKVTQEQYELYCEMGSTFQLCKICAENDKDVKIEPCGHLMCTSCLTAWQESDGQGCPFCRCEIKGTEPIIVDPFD

The IC50 is the midpoint of a concentration-inhibition curve. With `C[C@H](Cc1n[nH]cc1CO)c1cccc(N2Cc3c(cccc3C(F)(F)F)C2=O)c1` [Compound 271b, (R)-2-(3-(1-(4-(hydroxymethyl)-1H-pyrazol-3-yl)propan-2-yl)phenyl)-4-(trifluoromethyl)isoindolin-1-one], the results for the IC50 at Cbl-b [1] and on Cbl-b [2] were not above 10000 nM and 1000 to 3000 nM, respectively.

For the molecule `CC(Cc1nncn1C)c1cc(F)cc(N2Cc3c(cccc3C(F)(F)F)C2=O)c1` (centres unmarked) [Compound 281], the IC50 on Cbl-b [1] was not above 500 nM; at Cbl-b [2], 100 to 300 nM.

For `Cn1cnnc1CC(C)(C)c1cccc(NC(=O)c2ccnc(C(F)(F)F)n2)c1` [Compound 285, N-(3-(2-methyl-1-(4-methyl-4H-1,2,4-triazol-3-yl)propan-2-yl)phenyl)-2-(trifluoromethyl)pyrimidine-4-carboxamide], the IC50 at Cbl-b [1] is not above 500 nM; at Cbl-b [2] it was 100 to 300 nM.

`Cc1ccc(C(=O)Nc2cccc([C@H](C)[C@H](O)c3nncn3C)c2)nc1C1CC1` [Compound 288, Trans-6-cyclopropyl-N-(3-(1-hydroxy-1-(4-methyl-4H-1,2,4-triazol-3-yl)propan-2-yl)phenyl)-5-methylpicolinamide]: the IC50 was not above 10000 nM on Cbl-b [1] and 3000 to 10000 nM on Cbl-b [2].

As for `COC(Cc1nncn1C)c1cccc(N2Cc3c(cccc3C(F)(F)F)C2=O)c1` (centres unmarked) [Compound 290, 2-(3-(1-methoxy-2-(4-methyl-4H-1,2,4-triazol-3-yl)ethyl)phenyl)-4-(trifluoromethyl)isoindolin-1-one], the IC50 at Cbl-b [1] was not above 10000 nM; on Cbl-b [2], 1000 to 3000 nM.

`CCOC(Cc1nncn1C)c1cccc(N2Cc3c(cccc3C(F)(F)F)C2=O)c1` (centres unmarked) [Compound 291, 2-(3-(1-ethoxy-2-(4-methyl-4H-1,2,4-triazol-3-yl)ethyl)phenyl)-4-(trifluoromethyl)isoindolin-1-one]: the IC50 at Cbl-b [1] was not above 10000 nM; at Cbl-b [2], 3000 to 10000 nM.

`Cn1cnnc1C(F)(F)[C@@](C)(F)c1cccc(N2Cc3c(cccc3C(F)(F)F)C2=O)c1` [Compound 296b, (S)-2-(3-(1,1,2-trifluoro-1-(4-methyl-4H-1,2,4-triazol-3-yl)propan-2-yl)phenyl)-4-(trifluoromethyl)isoindolin-1-one]: the IC50 on Cbl-b [1] was not above 10000 nM; at Cbl-b [2], 3000 to 10000 nM.

`Cn1cnnc1CC(C)(O)c1cccc(N2Cc3c(cccc3C(F)(F)F)C2=O)c1` (centres unmarked) [Compound 297, 2-(3-(2-hydroxy-1-(4-methyl-4H-1,2,4-triazol-3-yl)propan-2-yl)phenyl)-4-(trifluoromethyl)isoindolin-1-one]: the IC50 was not above 10000 nM at Cbl-b [1] and 3000 to 10000 nM at Cbl-b [2].

Take `C[C@@H]1CN(Cc2cc(C(=O)Nc3cccc(C4(Cc5nncn5C)COC4)c3)nc(C3CC3)c2)CCO1` [Compound 501, 6-cyclopropyl-N-(3-{3-[(4-methyl-1,2,4-triazol-3-yl)methyl]oxetan-3-yl}phenyl)-4-{[(2R)-2-methylmorpholin-4-yl]methyl}pyridine-2-carboxamide]: the half-maximal inhibitory concentration (IC50) was not above 100 nM at Cbl-b [1] and less than 100 nM on Cbl-b [2].

For `Cc1cc(C(=O)Nc2cccc(C3(Cc4[nH]ncc4C)COC3)c2)nc(C2CC2)n1` [Compound 510, 2-cyclopropyl-6-methyl-N-(3-{3-[(4-methyl-1H-pyrazol-3-yl)methyl]oxetan-3-yl}phenyl)pyrimidine-4-carboxamide], the IC50 on Cbl-b [1] was not above 100 nM; at Cbl-b [2], less than 100 nM.

Regarding `Cc1cc(C(=O)Nc2cccc(C3=C(c4nncn4C)CCC3)c2)nc(C2CC2)n1` [Compound 518, 2-cyclopropyl-6-methyl-N-(3-(2-(4-methyl-4H-1,2,4-triazol-3-yl)cyclopent-1-en-1-yl)phenyl)pyrimidine-4-carboxamide], the figures for the IC50 on Cbl-b [1] and at Cbl-b [2] were not above 300 nM and 100 to 300 nM, respectively.

Consider `Cn1cnnc1CC1(c2cccc(N3Cc4c(cc(CN5CCOC(CCF)C5)cc4C(F)(F)F)C3=O)c2)COC1` (centres unmarked) [Compound 521, 6-{[2-(2-fluoroethyl)morpholin-4-yl]methyl}-2-(3-{3-[(4-methyl-1,2,4-triazol-3-yl)methyl]oxetan-3-yl}phenyl)-4-(trifluoromethyl)-3H-isoindol-1-one], for which the IC50 was not above 100 nM at Cbl-b [1] and less than 100 nM at Cbl-b [2].

Turning to `C[C@@H]1CN(Cc2cc3c(c(C(F)(F)F)c2)CN(c2cccc(-c4c(-c5nncn5C)cnn4C)c2)C3=O)CCO1` [Compound 524, (R)-2-(3-(l-methyl-4-(4-methyl-4H-1,2,4-triazol-3-yl)-1H-pyrazol-5-yl)phenyl)-6-((2-methylmorpholino)methyl)-4-(trifluoromethyl)isoindolin-1-one], the IC50 on Cbl-b [1] was not above 100 nM; at Cbl-b [2], less than 100 nM.

In the case of `C[C@@H]1CN(Cc2cc3c(c(C(F)(F)F)c2)CN(c2cccc(-c4c(-c5nncn5C)cnn4C)c2)C3=O)C[C@H](C)O1` [Compound 525, 6-(((2S,6S)-2,6-dimethylmorpholino)methyl)-2-(3-(l-methyl-4-(4-methyl-4H-1,2,4-triazol-3-yl)-1H-pyrazol-5-yl)phenyl)-4-(trifluoromethyl)isoindolin-1-one], the IC50 is not above 100 nM at Cbl-b [1] and less than 100 nM at Cbl-b [2].

For the molecule `Cn1cnnc1CC1(c2cccc(N3Cc4c(cc(CC5CNCCC5=O)cc4C(F)(F)F)C3=O)c2)COC1` (centres unmarked) [Compound 530, 2-(3-(3-((4-methyl-4H-1,2,4-triazol-3-yl)methyl)oxetan-3-yl)phenyl)-6-((4-oxopiperidin-3-yl)methyl)-4-(trifluoromethyl)isoindolin-1-one], the half-maximal inhibitory concentration (IC50) on Cbl-b [1] was not above 100 nM; at Cbl-b [2], less than 100 nM.

For `CC(c1cc2c(c(C(F)(F)F)c1)CN(c1cccc(C3(Cc4nncn4C)COC3)c1)C2=O)n1ccnc1` (centres unmarked) [Compound 542, 6-(1-(1H-imidazol-1-yl)ethyl)-2-(3-(3-((4-methyl-4H-1,2,4-triazol-3-yl)methyl)oxetan-3-yl)phenyl)-4-(trifluoromethyl)isoindolin-1-one], the values for the concentration for half-maximal inhibition (IC50) on Cbl-b [1] and at Cbl-b [2] were not above 100 nM and less than 100 nM, respectively.

Regarding `CN(c1cc2c(c(C(F)(F)F)c1)CN(c1cccc([C@@](C)(F)C(F)(F)c3nncn3C)c1)C2=O)[C@H]1CNC[C@@H]1F` [Example 550, 6-(((3S,4S)-4-fluoropyrrolidin-3-yl)(methyl)amino)-2-(3-((R)-1,1,2-trifluoro-1-(4-methyl-4H-1,2,4-triazol-3-yl)propan-2-yl)phenyl)-4-(trifluoromethyl)iso-indolin-1-one], the IC50 on Cbl-b [1] is not above 100 nM; on Cbl-b [2] it was less than 100 nM.

`CN(c1cc2c(c(C(F)(F)F)c1)CN(c1cccc([C@@](C)(F)C(F)(F)c3nncn3C)c1)C2=O)[C@@H]1CNC[C@H]1F` [Example 551, 6-(((3R,4R)-4-fluoropyrrolidin-3-yl)(methyl)amino)-2-(3-((R)-1,1,2-trifluoro-1-(4-methyl-4H-1,2,4-triazol-3-yl)propan-2-yl)phenyl)-4-(trifluoromethyl)iso-indolin-1-one]: the IC50 is not above 100 nM on Cbl-b [1] and less than 100 nM on Cbl-b [2].

Turning to `Cn1cnnc1CC1(c2cccc(N3Cc4c(cc(CN5CCC(F)CC5)cc4C4CC4)C3=O)c2)COC1` [Example 552, 4-cyclopropyl-6-((4-fluoropiperidin-1-yl)methyl)-2-(3-(3-((4-methyl-4H-1,2,4-triazol-3-yl)methyl)oxetan-3-yl)phenyl)isoindolin-1-one], the IC50 on Cbl-b [1] was not above 100 nM; at Cbl-b [2] it was less than 100 nM.
